Consider 19 compounds from patent publication US20090304692A1, “TRIAZINE COMPOUNDS AS PI3 KINASE AND MTOR INHIBITORS” (Wyeth, priority 2008, published 2009).

The target in one experiment is Human mTOR (FLAG-TOR) (Homo sapiens, UniProt P42345). The experiment can be described thus: mTOR kinase assay (DELFIA format, purified enzyme). The experiment is classed as biochemical. Particulars: read-out: IC50 mTOR.
For experiment [1], the system named is human breast MDA-MB-361 tumor cell line. The experiment can be described thus: In vitro cell culture growth assay (MTS), MDA-MB-361. The experiment is classed as cell-based. Particulars: Homo sapiens, MTS cell growth assay, three days after drug treatment, MDA-MB-361 cells, read-out: IC50 MDA-MB-361.
For experiment [2], the system named is human prostate PC3-mm2 tumor cell line. The experiment can be described thus: In vitro cell culture growth assay (MTS), PC3-mm2. Particulars: Homo sapiens, PC3MM2, 72 h, MTS cell growth assay, three days after drug treatment, PC3-mm2 cells; read-out: IC50 PC3-mm2. It counts as cell-based. A general note: Tetrazolium dyes change colour on reduction, which living cells bring about.

The next experiment deals with PI3K-α (Homo sapiens, UniProt P42336). The experiment can be described thus: PI3K-alpha fluorescence polarization assay. The conditions noted are these: read-out: IC50 PI3Kα. In general terms: Fluorescence polarisation rises when a labelled molecule tumbles more slowly, as on binding a larger partner.
For the next experiment, the target named is PI3K-γ (Homo sapiens, UniProt P48736). The experiment can be described thus: PI3K-gamma fluorescence polarization assay. Particulars: read-out: IC50 PI3Kγ.

pIC50: −log10 of the molar value. Where two headings read alike, the source gives them in different places.

Sequence of PI3K-α (P42336 whole entry, species assumed): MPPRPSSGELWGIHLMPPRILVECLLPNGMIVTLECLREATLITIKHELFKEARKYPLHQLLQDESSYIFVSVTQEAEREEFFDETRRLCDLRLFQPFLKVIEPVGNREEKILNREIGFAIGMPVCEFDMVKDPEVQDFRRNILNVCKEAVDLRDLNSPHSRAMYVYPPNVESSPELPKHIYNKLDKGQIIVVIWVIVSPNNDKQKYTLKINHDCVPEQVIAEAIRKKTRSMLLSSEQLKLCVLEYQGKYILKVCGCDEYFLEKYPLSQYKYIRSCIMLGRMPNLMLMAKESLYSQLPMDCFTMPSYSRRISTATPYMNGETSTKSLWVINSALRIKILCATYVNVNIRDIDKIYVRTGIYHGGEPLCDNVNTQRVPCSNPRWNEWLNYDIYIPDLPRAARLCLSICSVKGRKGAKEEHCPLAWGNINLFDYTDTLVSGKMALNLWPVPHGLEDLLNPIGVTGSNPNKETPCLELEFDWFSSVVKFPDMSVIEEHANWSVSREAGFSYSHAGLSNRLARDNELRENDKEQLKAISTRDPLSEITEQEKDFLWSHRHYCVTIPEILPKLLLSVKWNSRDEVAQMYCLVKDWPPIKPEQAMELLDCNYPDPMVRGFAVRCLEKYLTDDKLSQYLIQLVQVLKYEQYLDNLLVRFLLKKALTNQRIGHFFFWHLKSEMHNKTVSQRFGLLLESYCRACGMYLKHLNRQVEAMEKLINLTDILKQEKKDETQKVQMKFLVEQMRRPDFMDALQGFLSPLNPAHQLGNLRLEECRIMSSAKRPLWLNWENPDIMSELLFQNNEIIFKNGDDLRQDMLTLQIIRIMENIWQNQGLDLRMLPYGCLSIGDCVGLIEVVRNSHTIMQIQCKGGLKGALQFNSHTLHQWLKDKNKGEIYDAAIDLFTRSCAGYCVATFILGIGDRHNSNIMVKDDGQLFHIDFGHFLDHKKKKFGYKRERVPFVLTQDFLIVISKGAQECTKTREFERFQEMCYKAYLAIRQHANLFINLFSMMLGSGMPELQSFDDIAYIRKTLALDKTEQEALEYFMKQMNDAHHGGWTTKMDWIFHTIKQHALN
Sequence of PI3K-α (P27986 whole entry partner, species assumed): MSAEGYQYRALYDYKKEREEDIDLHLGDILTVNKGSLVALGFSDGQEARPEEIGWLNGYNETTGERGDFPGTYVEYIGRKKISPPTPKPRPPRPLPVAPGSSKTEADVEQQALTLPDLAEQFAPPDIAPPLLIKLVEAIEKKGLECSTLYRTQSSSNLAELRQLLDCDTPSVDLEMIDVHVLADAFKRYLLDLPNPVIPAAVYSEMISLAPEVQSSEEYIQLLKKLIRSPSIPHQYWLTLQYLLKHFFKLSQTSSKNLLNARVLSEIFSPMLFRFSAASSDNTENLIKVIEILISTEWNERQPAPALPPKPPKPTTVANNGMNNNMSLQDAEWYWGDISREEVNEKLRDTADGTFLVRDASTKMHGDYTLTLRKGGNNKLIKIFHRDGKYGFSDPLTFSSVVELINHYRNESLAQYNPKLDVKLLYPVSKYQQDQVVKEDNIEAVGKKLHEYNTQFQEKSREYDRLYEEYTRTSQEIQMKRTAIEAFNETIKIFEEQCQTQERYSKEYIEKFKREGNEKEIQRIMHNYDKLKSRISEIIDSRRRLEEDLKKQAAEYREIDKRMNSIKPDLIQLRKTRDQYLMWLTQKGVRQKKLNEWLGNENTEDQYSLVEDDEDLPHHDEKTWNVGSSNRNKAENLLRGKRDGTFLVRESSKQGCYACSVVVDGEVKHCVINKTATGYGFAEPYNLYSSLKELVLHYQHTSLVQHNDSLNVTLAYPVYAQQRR
Sequence of PI3K-γ (P48736 whole entry, species assumed): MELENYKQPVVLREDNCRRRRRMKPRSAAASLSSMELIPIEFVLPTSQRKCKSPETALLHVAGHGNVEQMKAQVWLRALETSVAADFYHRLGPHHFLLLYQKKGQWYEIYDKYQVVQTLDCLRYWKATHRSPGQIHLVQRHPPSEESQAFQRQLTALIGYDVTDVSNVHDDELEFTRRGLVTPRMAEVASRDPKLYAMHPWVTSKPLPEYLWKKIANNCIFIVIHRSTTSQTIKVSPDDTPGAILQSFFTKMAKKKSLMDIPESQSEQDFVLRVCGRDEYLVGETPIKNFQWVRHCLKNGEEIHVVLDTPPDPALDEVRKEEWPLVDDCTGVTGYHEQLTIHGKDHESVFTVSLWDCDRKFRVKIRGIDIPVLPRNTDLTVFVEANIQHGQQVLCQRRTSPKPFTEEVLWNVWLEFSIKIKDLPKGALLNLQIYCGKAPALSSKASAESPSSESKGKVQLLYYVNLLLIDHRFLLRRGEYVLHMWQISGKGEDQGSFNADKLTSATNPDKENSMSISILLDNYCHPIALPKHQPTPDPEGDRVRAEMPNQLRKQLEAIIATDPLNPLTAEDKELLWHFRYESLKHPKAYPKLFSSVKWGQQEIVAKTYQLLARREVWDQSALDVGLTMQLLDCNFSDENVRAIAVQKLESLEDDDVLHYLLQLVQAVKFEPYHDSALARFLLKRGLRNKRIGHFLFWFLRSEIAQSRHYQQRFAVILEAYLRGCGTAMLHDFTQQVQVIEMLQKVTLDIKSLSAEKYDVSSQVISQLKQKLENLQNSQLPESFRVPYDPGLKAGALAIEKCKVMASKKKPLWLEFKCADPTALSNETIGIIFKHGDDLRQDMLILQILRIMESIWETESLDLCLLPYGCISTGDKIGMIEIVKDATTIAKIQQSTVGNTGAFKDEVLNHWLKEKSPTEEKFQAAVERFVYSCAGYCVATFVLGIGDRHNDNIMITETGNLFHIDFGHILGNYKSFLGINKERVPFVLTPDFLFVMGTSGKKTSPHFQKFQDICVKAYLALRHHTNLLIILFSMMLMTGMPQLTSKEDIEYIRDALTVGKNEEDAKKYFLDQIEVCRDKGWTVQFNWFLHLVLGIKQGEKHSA
Sequence of Human mTOR (FLAG-TOR) (P42345 1360-2549 limits assumed): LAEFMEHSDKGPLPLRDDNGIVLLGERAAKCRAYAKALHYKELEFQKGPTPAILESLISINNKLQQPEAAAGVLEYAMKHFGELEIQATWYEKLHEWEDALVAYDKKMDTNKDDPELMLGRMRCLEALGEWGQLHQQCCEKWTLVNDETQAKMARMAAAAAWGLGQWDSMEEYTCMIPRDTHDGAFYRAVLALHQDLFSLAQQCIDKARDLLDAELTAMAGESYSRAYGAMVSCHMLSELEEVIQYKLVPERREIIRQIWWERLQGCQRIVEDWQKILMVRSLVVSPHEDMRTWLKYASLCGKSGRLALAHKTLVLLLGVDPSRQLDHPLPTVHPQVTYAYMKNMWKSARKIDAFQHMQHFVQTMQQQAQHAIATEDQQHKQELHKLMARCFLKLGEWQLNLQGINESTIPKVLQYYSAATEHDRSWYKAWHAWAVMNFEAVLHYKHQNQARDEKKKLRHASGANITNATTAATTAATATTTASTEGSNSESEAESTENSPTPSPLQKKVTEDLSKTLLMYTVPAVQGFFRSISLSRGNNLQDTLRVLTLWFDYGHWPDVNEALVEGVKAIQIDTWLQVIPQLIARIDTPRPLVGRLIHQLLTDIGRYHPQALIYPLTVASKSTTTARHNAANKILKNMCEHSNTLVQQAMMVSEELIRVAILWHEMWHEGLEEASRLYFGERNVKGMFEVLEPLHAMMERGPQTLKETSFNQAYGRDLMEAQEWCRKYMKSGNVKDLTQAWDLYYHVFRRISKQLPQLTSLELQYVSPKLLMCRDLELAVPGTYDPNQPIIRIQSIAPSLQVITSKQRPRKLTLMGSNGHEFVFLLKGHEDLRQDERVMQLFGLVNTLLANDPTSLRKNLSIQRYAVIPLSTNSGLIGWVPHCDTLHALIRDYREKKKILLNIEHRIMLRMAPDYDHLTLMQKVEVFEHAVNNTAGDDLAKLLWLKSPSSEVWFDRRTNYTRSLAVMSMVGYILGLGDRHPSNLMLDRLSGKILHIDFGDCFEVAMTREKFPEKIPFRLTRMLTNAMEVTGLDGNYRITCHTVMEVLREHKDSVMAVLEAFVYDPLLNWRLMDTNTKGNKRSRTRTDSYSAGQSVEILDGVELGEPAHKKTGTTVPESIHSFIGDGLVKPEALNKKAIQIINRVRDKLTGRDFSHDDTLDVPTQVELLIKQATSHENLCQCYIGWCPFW

In general, pIC50 refers to the negative decadic logarithm of the IC50, by convention in mol/L. Regarding `Cc1ccc(-c2nc(-c3ccc(NC(=O)Nc4ccc(C(=O)NCCCN(C)C)cc4)cc3)nc(N3CCOCC3)n2)cc1` [Example 554, N-[3-(dimethylamino)propyl]-4-[({4-[4-(4-methylphenyl)-6-morpholin-4-yl-1,3,5-triazin-2-yl]phenyl}carbamoyl)amino]benzamide], the pIC50 on Human mTOR (FLAG-TOR) is 7.92; in experiment [1] (72 h) it was 6.28; in experiment [2], below 6.00; on PI3K-α it was 7.82; at PI3K-γ, 6.81.

With `CN(C)CCCNC(=O)c1ccc(NC(=O)Nc2ccc(-c3nc(-c4ccccc4)nc(N4CCOCC4)n3)cc2)cc1` [Example 556, N-[3-(dimethylamino)propyl]-4-({[4-(4-morpholin-4-yl-6-phenyl-1,3,5-triazin-2-yl)phenyl]carbamoyl}amino)benzamide], the pIC50 on Human mTOR (FLAG-TOR) was 8.36; in experiment [1] (72 h), 6.89; in experiment [2], 6.42; at PI3K-α, 8.07; on PI3K-γ it was 7.27.

`O=C(Nc1ccncc1)Nc1ccc(-c2nc(-c3cccs3)nc(N3CCOCC3)n2)cc1` [Example 557, 1-{4-[4-morpholin-4-yl-6-(2-thienyl)-1,3,5-triazin-2-yl]phenyl}-3-pyridin-4-ylurea]: the pIC50 on Human mTOR (FLAG-TOR) is 8.07; in experiment [1] (72 h), 7.47; in experiment [2], 7.51; on PI3K-α, 7.74; at PI3K-γ, 7.19.

Turning to `O=C(Nc1ccc(C(=O)O)cc1)Nc1ccc(-c2nc(-c3cccs3)nc(N3CCOCC3)n2)cc1` [Example 558, 4-[({4-[4-morpholin-4-yl-6-(2-thienyl)-1,3,5-triazin-2-yl]phenyl}carbamoyl)amino]benzoic acid], the pIC50 at Human mTOR (FLAG-TOR) is 8.21; in experiment [1] (72 h), 6.12; in experiment [2], 6.03; at PI3K-α, 7.77; at PI3K-γ, 7.39.

For `CN1CCN(C(=O)c2ccc(NC(=O)Nc3ccc(-c4nc(-c5cccs5)nc(N5CCOCC5)n4)cc3)cc2)CC1` [Example 559, 1-{4-[(4-methylpiperazin-1-yl)carbonyl]phenyl}-3-{4-[4-morpholin-4-yl-6-(2-thienyl)-1,3,5-triazin-2-yl]phenyl}urea], the pIC50 at Human mTOR (FLAG-TOR) is 8.00; in experiment [1] (MDA-MB-361, 72 h), 8.10; in experiment [2], 6.83; at PI3K-α, 8.70; on PI3K-γ it was 7.87.

Regarding `COCCNC(=O)c1ccc(NC(=O)Nc2ccc(-c3nc(-c4cccs4)nc(N4CCOCC4)n3)cc2)cc1` [Example 561, N-(2-methoxyethyl)-4-[({4-[4-morpholin-4-yl-6-(2-thienyl)-1,3,5-triazin-2-yl]phenyl}carbamoyl)amino]benzamide], the pIC50 is 8.22 at Human mTOR (FLAG-TOR); 7.18 in experiment [1] (72 h); 6.66 in experiment [2]; 7.94 at PI3K-α; 7.23 on PI3K-γ.

`CN(C)CCN(C)C(=O)c1ccc(NC(=O)Nc2ccc(-c3nc(-c4cccs4)nc(N4CCOCC4)n3)cc2)cc1` [Example 562, N-[2-(dimethylamino)ethyl]-N-methyl-4-[({4-[4-morpholin-4-yl-6-(2-thienyl)-1,3,5-triazin-2-yl]phenyl}carbamoyl)amino]benzamide]: the pIC50 is 8.40 on Human mTOR (FLAG-TOR); 8.52 in experiment [1] (72 h); 7.03 in experiment [2]; 9.00 at PI3K-α; 7.98 on PI3K-γ.

For `CN(C)CCNC(=O)c1ccc(NC(=O)Nc2ccc(-c3nc(-c4cccs4)nc(N4CCOCC4)n3)cc2)cc1` [Example 563, N-[2-(dimethylamino)ethyl]-4-[({4-[4-morpholin-4-yl-6-(2-thienyl)-1,3,5-triazin-2-yl]phenyl}carbamoyl)amino]benzamide], the pIC50 was 8.52 on Human mTOR (FLAG-TOR); 8.00 in experiment [1] (72 h); 6.77 in experiment [2]; 8.60 at PI3K-α; 7.47 at PI3K-γ.

On to `C[C@H]1COCCN1c1nc(-c2ccc(NC(=O)Nc3ccc(C(=O)N(C)CCN(C)C)cc3)cc2)nc(N2CCOC[C@@H]2C)n1` [Example 564, 4-{[(4-{4,6-bis[(3S)-3-methylmorpholin-4-yl]-1,3,5-triazin-2-yl}phenyl)carbamoyl]amino}-N-[2-(dimethylamino)ethyl]-N-methylbenzamide], for which the pIC50 at Human mTOR (FLAG-TOR) is 9.00; in experiment [1] (72 h) it was 9.00; in experiment [2], 8.15; at PI3K-α, 9.22; on PI3K-γ, 7.78.

On to `C[C@H]1COCCN1c1nc(-c2ccc(NC(=O)Nc3ccc(C(=O)N4CCN(C)CC4)cc3)cc2)nc(N2CCOC[C@@H]2C)n1` [Example 565, 1-(4-{4,6-bis[(3S)-3-methylmorpholin-4-yl]-1,3,5-triazin-2-yl}phenyl)-3-{4-[(4-methylpiperazin-1-yl)carbonyl]phenyl}urea], for which the pIC50 is 9.00 at Human mTOR (FLAG-TOR); 8.05 in experiment [1] (72 h); 7.57 in experiment [2]; 8.39 on PI3K-α; 7.42 on PI3K-γ.

Turning to `O=C(Nc1ccncc1)Nc1ccc(-c2nc(N3CCCOCC3)nc(N3CCOCC3)n2)cc1` [Example 566, 1-{4-[4-morpholin-4-yl-6-(1,4-oxazepan-4-yl)-1,3,5-triazin-2-yl]phenyl}-3-pyridin-4-ylurea], the pIC50 on Human mTOR (FLAG-TOR) was 8.70; in experiment [1] (72 h) it was 7.55; in experiment [2] it was 7.26; on PI3K-α it was 8.59; at PI3K-γ it was 7.74.

Turning to `COC(=O)c1ccc(NC(=O)Nc2ccc(-c3nc(N4CCCOCC4)nc(N4CCOCC4)n3)cc2)cc1` [Example 567, methyl 4-[({4-[4-morpholin-4-yl-6-(1,4-oxazepan-4-yl)-1,3,5-triazin-2-yl]phenyl}carbamoyl)amino]benzoate], the pIC50 was 8.70 at Human mTOR (FLAG-TOR); 6.97 in experiment [1] (MDA-MB-361, 72 h); 6.89 in experiment [2]; 7.84 on PI3K-α; 7.05 on PI3K-γ.

In the case of `CN(C)CCCNC(=O)c1ccc(NC(=O)Nc2ccc(-c3nc(-c4cccs4)nc(N4CCOCC4)n3)cc2)cc1` [Example 570, N-[3-(dimethylamino)propyl]-4-[({4-[4-morpholin-4-yl-6-(2-thienyl)-1,3,5-triazin-2-yl]phenyl}carbamoyl)amino]benzamide], the pIC50 at Human mTOR (FLAG-TOR) is 7.89; in experiment [1] (72 h), 7.55; in experiment [2], 6.46; at PI3K-α, 8.26; at PI3K-γ, 7.32.

With `COCCNC(=O)c1ccc(NC(=O)Nc2ccc(-c3nc(N4CCCOCC4)nc(N4CCOCC4)n3)cc2)cc1` [Example 574, N-(2-methoxyethyl)-4-[({4-[4-morpholin-4-yl-6-(1,4-oxazepan-4-yl)-1,3,5-triazin-2-yl]phenyl}carbamoyl)amino]benzamide], the pIC50 is 8.22 on Human mTOR (FLAG-TOR); 8.22 in experiment [1] (72 h); 7.60 in experiment [2]; 9.00 at PI3K-α; 7.90 on PI3K-γ.

Turning to `CCN1CCN(C(=O)c2ccc(NC(=O)Nc3ccc(-c4nc(-c5cccs5)nc(N5CCOCC5)n4)cc3)cc2)CC1` [Example 575, 1-{4-[(4-ethylpiperazin-1-yl)carbonyl]phenyl}-3-{4-[4-morpholin-4-yl-6-(2-thienyl)-1,3,5-triazin-2-yl]phenyl}urea], the pIC50 on Human mTOR (FLAG-TOR) was 7.82; in experiment [1] (72 h), 7.82; in experiment [2], 6.62; at PI3K-α, 8.52; on PI3K-γ, 7.72.

With `O=C(Nc1ccncc1)Nc1ccc(-c2nc(N3CCCCC3)nc(N3CCOCC3)n2)cc1` [Example 592, 1-[4-(4-morpholin-4-yl-6-piperidin-1-yl-1,3,5-triazin-2-yl)phenyl]-3-pyridin-4-ylurea], the pIC50 at Human mTOR (FLAG-TOR) is 8.05; in experiment [1] (72 h), 6.62; in experiment [2], 6.14; on PI3K-α it was 7.59; on PI3K-γ, 6.91.

As to `O=C(Nc1ccc(C(=O)O)cc1)Nc1ccc(-c2nc(N3CCCCC3)nc(N3CCOCC3)n2)cc1` [Example 593, 4-({[4-(4-morpholin-4-yl-6-piperidin-1-yl-1,3,5-triazin-2-yl)phenyl]carbamoyl}amino)benzoic acid], the pIC50 on Human mTOR (FLAG-TOR) was 7.92; in experiment [1] (MDA-MB-361, 72 h), below 6.00; in experiment [2], below 6.00; on PI3K-α, 7.40; at PI3K-γ it was 6.84.

Take `CCN1CCN(C(=O)c2ccc(NC(=O)Nc3ccc(-c4nc(N5CCCCC5)nc(N5CCOCC5)n4)cc3)cc2)CC1` [Example 596, 1-{4-[(4-ethylpiperazin-1-yl)carbonyl]phenyl}-3-[4-(4-morpholin-4-yl-6-piperidin-1-yl-1,3,5-triazin-2-yl)phenyl]urea]: the pIC50 was 7.89 at Human mTOR (FLAG-TOR); 7.59 in experiment [1] (MDA-MB-361, 72 h); 6.81 in experiment [2]; 8.30 at PI3K-α; 7.39 at PI3K-γ.

Consider `CN1CCN(C(=O)c2ccc(NC(=O)Nc3ccc(-c4nc(N5CCCCC5)nc(N5CCOCC5)n4)cc3)cc2)CC1` [Example 597, 1-{4-[(4-methylpiperazin-1-yl)carbonyl]phenyl}-3-[4-(4-morpholin-4-yl-6-piperidin-1-yl-1,3,5-triazin-2-yl)phenyl]urea], for which the pIC50 on Human mTOR (FLAG-TOR) was 7.96; in experiment [1] (MDA-MB-361, 72 h), 7.35; in experiment [2] it was 6.64; on PI3K-α it was 8.30; on PI3K-γ, 7.24.
